# Test results: ChEMBL document CHEMBL3244278, “Cerebrovasodilatation through selective inhibition of the enzyme carbonic anhydrase. 1. Substituted benzenedisulfonamides” (J Med Chem, 1978)
# Calls of active or inactive are those of the source. The rule behind the calls is not given here.
# Key:
# Mus musculus [1] = assay: Anticonvulsant activity in mouse assessed as protection against electroshock-induced maximal seizure effect up to 100 mg/kg, po administered via gavage 2 hrs prior to electroshock stimulation; format: functional, organism-based; set-up: dose 100 mg/kg
# Mus musculus [2] = assay: Anticonvulsant activity in po dosed mouse assessed as protection against electroshock-induced maximal seizure effect administered via gavage 2 hrs prior to electroshock stimulation; format: functional; settings: for ED50: Mus musculus, po
# [3] = Dissociation constant, pKa of the compound; format: physicochemical
# [4] = Protein binding in plasma (unknown origin); format: ADME, cell-free; settings: unidentified, read-out: PPB (converted)
# Rattus norvegicus = assay: Induction of diuretic activity in po dosed rat assessed as increase in urine output after 4 hrs; format: organism-based
# [5] = Octanol-water partition coefficient, log P of the compound; format: physicochemical
# [6] = Elimination half life in iv dosed dog plasma; format: ADME, organism-based, Canis lupus familiaris; settings: read-out: beta t1/2 (converted)
SMILES,Activity (Mus musculus [1]),other results
COC1CCN(S(=O)(=O)c2ccc(S(N)(=O)=O)c(C(F)(F)F)c2)CC1,inactive,–
NS(=O)(=O)c1ccc(S(=O)(=O)N2CCC3(CC2)NC(=O)NC3=O)cc1Cl,inactive,–
NS(=O)(=O)c1cc(Cl)c(S(=O)(=O)N2CCOCC2)c(Cl)c1,inactive,–
COC1CCN(S(=O)(=O)c2cc(C)c(S(N)(=O)=O)c(C)c2)CC1,inactive,–
NS(=O)(=O)c1ccc(S(=O)(=O)N2CCC(O)(c3ccccn3)CC2)cc1,–,ED50 (Mus musculus [2]): 40 mg/kg
COC1CCN(S(=O)(=O)c2c(Cl)cc(S(N)(=O)=O)cc2Cl)CC1,inactive,–
CN1CN(c2ccccc2)C2(CCN(S(=O)(=O)c3ccc(S(N)(=O)=O)cc3)CC2)C1=O,–,ED50 (Mus musculus [2]): > 40 mg/kg
NS(=O)(=O)c1nnc(NS(=O)(=O)c2ccccc2)s1 [BENZOLAMIDE],–,pKa [3]: 3.2; fraction unbound [4]: 0.08
NS(=O)(=O)c1ccc(S(=O)(=O)N2CCOCC2)cc1C(F)(F)F,inactive,–
COC1CCN(S(=O)(=O)c2cc(Cl)c(S(N)(=O)=O)cc2C)CC1,inactive,–
CC(=O)C1CCN(S(=O)(=O)c2ccc(S(N)(=O)=O)cc2)CC1,inactive,–
CC(=O)Nc1nnc(S(N)(=O)=O)s1 [ACETAZOLAMIDE],–,Activity (Mus musculus [2]): 36 mg/kg; ED50 (Rattus norvegicus): 5 mg/kg
COC1(C)CCN(S(=O)(=O)c2ccc(S(N)(=O)=O)cc2)CC1,inactive,–
COC1CCN(S(=O)(=O)c2ccc(S(N)(=O)=O)c(Cl)c2)CC1 [UK-12130],–,logP [5]: 0.62; half-life [6]: 3 h
